# Laboratory results taken from patent US10888550B2, “Pyrazole derivatives as MALT1 inhibitors” (Janssen Pharmaceutica NV, priority 2018, dated 2021).
# pIC50: −log10 of the molar value.
# How the values were obtained:
# [1] = molecular target: full-length MALT1 protein (Strep-MALT1(1-824)-His) (Homo sapiens (Human), UniProt Q9UDY8); assay: MALT1 Biochemical Protease Assay; conditions: read-out: MALT1_Biochemical activity (Ac-LRSR-amc) IC50; 10 nM FL MALT1, 200 μM Ac-LRSR-AMC, 50 min pre-incubation, 4 h at RT
# full-length MALT1 protein (Strep-MALT1(1-824)-His), sequence (Q9UDY8 whole entry): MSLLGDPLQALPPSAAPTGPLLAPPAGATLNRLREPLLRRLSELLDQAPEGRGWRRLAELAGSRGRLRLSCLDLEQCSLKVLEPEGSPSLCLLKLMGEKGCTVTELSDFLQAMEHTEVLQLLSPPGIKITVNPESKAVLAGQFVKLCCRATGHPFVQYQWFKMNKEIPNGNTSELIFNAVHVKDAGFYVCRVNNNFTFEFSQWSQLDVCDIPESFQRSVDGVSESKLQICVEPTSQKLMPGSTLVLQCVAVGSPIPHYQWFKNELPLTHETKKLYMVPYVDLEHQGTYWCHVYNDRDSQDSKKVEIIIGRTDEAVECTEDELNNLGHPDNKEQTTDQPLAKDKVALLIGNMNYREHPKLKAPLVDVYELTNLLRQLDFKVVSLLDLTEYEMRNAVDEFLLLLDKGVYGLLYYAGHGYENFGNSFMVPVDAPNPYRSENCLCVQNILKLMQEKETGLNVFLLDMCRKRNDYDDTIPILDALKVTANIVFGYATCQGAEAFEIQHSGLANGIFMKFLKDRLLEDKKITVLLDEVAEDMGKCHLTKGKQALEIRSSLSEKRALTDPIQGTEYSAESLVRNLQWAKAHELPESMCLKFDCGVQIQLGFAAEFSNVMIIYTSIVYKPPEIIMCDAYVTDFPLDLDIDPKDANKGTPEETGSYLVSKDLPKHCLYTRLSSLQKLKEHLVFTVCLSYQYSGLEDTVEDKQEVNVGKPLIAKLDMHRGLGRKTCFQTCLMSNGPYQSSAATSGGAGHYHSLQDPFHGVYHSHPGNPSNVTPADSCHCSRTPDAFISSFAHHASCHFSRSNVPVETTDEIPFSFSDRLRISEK
# Text: From this an ICso value (inhibitory concentration causing 50% inhibition) can be obtained.
# [2] = tested on: IL6 secretion, OCI-LY3 cells; assay: Human IL6 Mesoscale assay (OCI-LY3); assay type: cell-based; conditions: 24 h incubation
# [3] = tested on: IL10 secretion, OCI-LY3 cells; assay: Human IL10 Mesoscale assay (OCI-LY3); assay type: cell-based; conditions: 24 h incubation
SMILES,pIC50 [1],pIC50 [2],pIC50 [3]
"Cc1cnc(-c2ncc(NC(=O)c3cnn(-c4ccc(F)c5nccn45)c3C(F)(F)F)cc2Cl)o1 [Cpd 9, N-(5-chloro-6-(5-methyloxazol-2-yl)pyridin-3-yl)-1-(8-fluoroimidazo[1,2-a]pyridin-5-yl)-5-(trifluoromethyl)-1H-pyrazole-4-carboxamide]",7.09,6.62,6.89
"Cc1coc(-c2ncc(NC(=O)c3cnn(-c4ccc(F)c5nccn45)c3C(F)(F)F)cc2Cl)n1 [Cpd 10, N-(5-chloro-6-(4-methyloxazol-2-yl)pyridin-3-yl)-1-(8-fluoroimidazo[1,2-a]pyridin-5-yl)-5-(trifluoromethyl)-1H-pyrazole-4-carboxamide]",7.59,6.91,7.64
"N#Cc1ccc(-n2ncc(C(=O)Nc3ccnc(C(F)(F)F)c3)c2C(F)(F)F)c2ccnn12 [Cpd 11, 1-(7-cyanopyrazolo[1,5-a]pyridin-4-yl)-5-(trifluoromethyl)-N-(2-(trifluoromethyl)pyridin-4-yl)-1H-pyrazole-4-carboxamide]",7.05,6.86,7.19
"NC(=O)c1ccc(-n2ncc(C(=O)Nc3ccnc(C(F)(F)F)c3)c2C(F)(F)F)c2ccnn12 [Cpd 12, 4-(5-(trifluoromethyl)-4-((2-(trifluoromethyl)pyridin-4-yl)carbamoyl)-1H-pyrazol-1-yl)pyrazolo[1,5-a]pyridine-7-carboxamide]",6.66,6.54,6.81
"N#Cc1ccc(-n2ncc(C(=O)Nc3cnc(-n4nccn4)c(Cl)c3)c2C(F)(F)F)c2ccnn12 [Cpd 13, N-(5-chloro-6-(2H-1,2,3-triazol-2-yl)pyridin-3-yl)-1-(7-cyanopyrazolo[1,5-a]pyridin-4-yl)-5-(trifluoromethyl)-1H-pyrazole-4-carboxamide]",7.72,7.66,7.72
"O=C(Nc1ccnc(C(F)(F)F)c1)c1cnn(-c2ccc(Cl)n3nccc23)c1C(F)(F)F [Cpd 14, 1-(7-chloropyrazolo[1,5-a]pyridin-4-yl)-5-(trifluoromethyl)-N-(2-(trifluoromethyl)pyridin-4-yl)-1H-pyrazole-4-carboxamide]",6.68,6.94,6.30
"O=C(Nc1cnc(-n2nccn2)c(Cl)c1)c1cnn(-c2ccc(Cl)n3nccc23)c1C(F)(F)F [Cpd 15, N-(5-chloro-6-(2H-1,2,3-triazol-2-yl)pyridin-3-yl)-1-(7-chloropyrazolo[1,5-a]pyridin-4-yl)-5-(trifluoromethyl)-1H-pyrazole-4-carboxamide]",7.48,7.33,7.51
"NC(=O)c1ccc(-n2ncc(C(=O)Nc3cnc(-n4nccn4)c(Cl)c3)c2C(F)(F)F)c2ccnn12 [Cpd 16, 4-(4-((5-chloro-6-(2H-1,2,3-triazol-2-yl)pyridin-3-yl)carbamoyl)-5-(trifluoromethyl)-1H-pyrazol-1-yl)pyrazolo[1,5-a]pyridine-7-carboxamide]",7.60,7.38,7.39
